From patent US11220516B2, “Nitric oxide-releasing antibiotics, methods of making, and methods of use” (University of Georgia Research Foundation, Inc., priority 2019, dated 2022)
Read-outs that look alike come from different tables or passages of the source.

Tests used:
[1] = test system: 48 h old preformed S. aureus biofilms; assay: Biofilm dispersal assay on CarboSil polymer films; type: cell-based, Staphylococcus aureus (ATCC 6538); settings: for reduction in planktonic bacteria in solution: bacteria shed from 48 h S. aureus biofilm; for inhibition at 500 µM: Staphylococcus aureus, read-out: reduction of viable bacteria adhered on the films (biofilm)
Experimental: Biofilms were grown for 48 h on circular CarboSil polymer films fabricated with a surface area of 1 cm^2. Solutions of S. aureus were prepared by placing one colony of bacteria in Luria Broth and incubated at 37° C. until the solution reached approximately 10^6 to 10^8 CFU mL^−1. Each polymer film was suspended in 2 mL of the bacteria solution and the solution was replenished with a fresh bacteria solution at 24 h of incubation. For the duration of the study the samples were incubated on a shaker at 150 rpms. After 48 h, the films were removed from the bacteria solutions and each film was gently rinsed with 5 ml of sterile PBS to remove any planktonic bacteria. The films were next incubated with 1 mL their specified test solutions and each solution type was tested at n=4. Each test solution was prepared with sterilized PBS and calculated to contain either 500 μM of ampicillin, SNAP, or SNAPicillin. After 24 h, the polymer films were removed from the test solutions, gently rinsed with PBS to remove planktonic bacteria, and homogenized in sterile PBS to remove any viable bacteria from the biofilm. The collected bacteria were serially diluted, plated on LB agar, and incubated for 18 h to achieve countable CFUs for comparison. A similar procedure was then done for the planktonic bacteria suspended in the solution of the incubated films to observe viable bacteria that shed from the potentially dispersed biofilms.
While NO release from SNAP may have difficulties diffusing through agar for disk diffusion testing, it is extremely potent at dispersing biofilms. […] The polymer films were then immersed into solutions containing either ampicillin, SNAP, or SNAPicillin at a concentration of 500 μM and the adhered bacteria remaining on the film as well as the planktonic bacteria within the solutions were observed (FIGS. 7 and 8).

S. aureus = assay: Zone of inhibition assay (agar diffusion) of blended CarboSil films; type: cell-based, Staphylococcus aureus (ATCC 6538); settings: 8 mm diameter; for ZOI values against S. aureus: overnight at 37° C.
Experimental: Zone of inhibition (ZOI) testing was done on polymer films containing the same composition of either ampicillin, SNAP, or SNAPicillin used in the leachate and NOA studies. A standard agar diffusion protocol was followed and tested against S. aureus. A single colony of bacterium was suspended into LB and incubated at 37° C. for 14 h while being rotated at 150 rpm. The optical density of each bacterial culture was then measured at 600 nm using a UV-Vis spectrophotometer. The observed optical density was adjusted to 1×10^7 colony forming units per mL using a standard calibration curve of each corresponding bacteria. A sterile cotton swab was then used to dip into each culture media and spread onto premade LB-agar petri dishes. The polymer films of either ampicillin, SNAP, SNAPicillin, along with controls (diameter: 8 mm, thickness: 200 μm) were then placed on top of the petri dishes and allowed to incubate overnight at 37° C. The ZOI was then measured and compared the following day to observe the antimicrobial effects of synthesized SNAPicillin molecule within a hydrophobic matrix.
A significant advantage of using targeted antibiotics over NO releasing polymers is seen in its ability to prevent bacteria growth. […] To ensure the SNAP attachment to ampicillin was not interfering with this targeted potency, a zone of inhibition (ZOI) test against S. aureus was done. […] This trend has been seen in the past with NO releasing hydrophobic polymers, where the ZOI is extremely limited beyond the interface of the polymer itself.^32
The characterization of covalent attachment of SNAP was verified through FTIR (Fourier Transform Infrared Spectroscopy) and NMR (Nuclear Magnetic Resonance Spectroscopy) and its NO releasing characteristics were compared to pure, unmodified SNAP. The combination of both NO and ampicillin in one unique compound allows for the dispersal of biofilms while making them more susceptible to the antibiotic moiety. […]

[2] = SNAP leachate from blended CarboSil films in PBS (UV-vis absorbance at 340 nm); type: physicochemical; settings: equimolar blend in CarboSil films, PBS at 37° C., end of 4 day study
Experimental: Leaching of SNAPicillin and SNAP was done by first blending equimolar amounts of the corresponding chemical (33.33 μmol mL^−1) into solutions of CarboSil dissolved in THF (50 mg mL^−1) and subsequently cast into Teflon molds to dry overnight. The dried films were then weighed and measured before being submerged into PBS. Quantification of SNAP leaching into solution was done by measuring absorbance at 340 nm via UV-vis analysis.
(§1) One issue holding back using the direct administration of NO donors as an effective therapeutic is its short half-life. To address this, a common method for controlling and directing the NO release of a donor in a localized and targeted area is to encapsulate it within a polymer. This strategy is also used for antibiotics and antiseptics as well, as catheters have been fabricated with physically blended drugs to combat and prevent infection.^28-30 One key advantage for modifying the ampicillin with SNAP was its change in solubility. A large majority of antibiotics are not soluble in organic solvents, limiting its ability to evenly disperse within polymer matrices when coated or impregnated within the bulk material. […] The polymer films were measured and weighed before being immersed in PBS at 37° C. and were periodically taken out to examine either SNAP or ampicillin leachates (FIGS. 3A-3B). […]

[3] = NO release from blended CarboSil polymer films over 7 days and NO donor remaining (UV-VIS); type: physicochemical; settings: for NO donor remaining within the CarboSil polymer films: 168 h
Experimental: (§2) Real time NO release was measured using a Sievers 280i NOA (Nitric Oxide Analyzer). Polymer films containing SNAPicillin or SNAP were immersed in amber reaction vessels containing PBS (pH 7.4) with 100 μM EDTA to chelate any metal ion contaminants within the buffer. Solutions were continuously purged with a nitrogen sweep gas and bubbler to carry the NO from the solution directly to the NOA. In a separate NO releasing study, solutions containing 500 μM of either SNAPicillin or SNAP in PBS with EDTA were also tested under physiological conditions to obtain the stabilized NO release profile to compare passive release kinetics.
A separate NO release study was also done by physically blending equimolar amounts into solutions of CarboSil, and solvent casting a thin polymer film to be analyzed. Since polymer films blended with SNAP are a common strategy to create a surface with controlled, localized NO release, a comparison of NO release was done using SNAPicillin containing polymer films to examine its potential as an alternative novel NO donor. The fabricated films were placed in PBS (pH 7.4) containing 0.01 mM EDTA at 37° C. to observe the real time NO releasing kinetics. […] This is contrary to the pure solutions that were previously placed under physiological conditions, where SNAP was able to have a higher initial release. The difference is most likely is due to the leaching rate of either SNAP or SNAPicillin from a hydrophobic polymer matrix.
The amount of NO donor remaining in the films was also quantified using UV-VIS after this time period to examine the potential release beyond the recorded 7 days. […] As mentioned previously, due to the larger molecular weight of SNAPicillin, it was able to stay within the CarboSil matrix for a longer period of time when compared to SNAP blended films. This further emphasizes the versatility of the SNAPicillin donor as a possible RSNO donor substitute for NO releasing polymers that require sustained or controlled release kinetics with the additional antimicrobial functionality.

[4] = NO release kinetics of 500 μM solutions (Sievers 280i Nitric Oxide Analyzer); type: physicochemical; settings: 500 μM in PBS (pH 7.4) with EDTA, 37° C., 4 h
Experimental: as §2
The NO release of the synthesized SNAPicillin was compared to pure SNAP by dissolving equimolar (500 μM) amounts of each into separate solutions of PBS (pH 7.4) containing 0.01 mM EDTA and placing them in an amber reaction vial submerged within a water bath at 37° C. while NO release was monitored in real time. Nitrogen gas was used to continuously purge the solution to examine the stabilized, passive release under these conditions. […] Although equimolar amounts of each component were used, the RSNO component on the SNAPicillin appears to be less reactive when compared to pure crystalline SNAP under physiological conditions.

[5] = Ampicillin leachate from blended CarboSil films in PBS with EDTA (alkaline potassium permanganate oxidation); type: physicochemical; settings: equimolar blend in CarboSil films, PBS at 37° C., 4 days
Text: Ampicillin eachate from CarboSil films was done by making polymer solutions with equimolar amounts of SNAPicillin and ampicillin. Ampicillin was first dissolve in a small amount of methanol before being added to CarboSil in THF solutions and then solvent casted into Teflon molds. Films were then weighed and immersed in PBS containing EDTA. Quantification of ampicillin leaching into solution was done via the oxidation reaction with alkaline potassium permanganate following a previously established protocol.^24
as §1, with “solubility.” for “solubility. A large majority of antibiotics are not soluble in organic solvents, limiting its ability to evenly disperse within polymer matrices when coated or impregnated within the bulk material.”

biofilms = settings: as low as; cited from earlier work
[6] = 500 μM solution in PBS, 24 h treatment
[7] = 500 μM solution in PBS, 24 h treatment, 48 h S. aureus biofilm

## CC(=O)N[C@H](C(=O)O)C(C)(C)SN=O (racemic) [SNAP, S-nitroso-N-acetylpenicillamine]
[1]; [6]
  reduction in planktonic bacteria in solution: 96.2±1.15%
[1]
  inhibition at 500 µM: 99.2 ± 0.762%
S. aureus
  zone of inhibition against S. aureus, in words: only killing bacteria directly in contact with the film
[2]
  cumulative leaching from films, SNAP leaching study: 1.307±0.536 μmol cm-2
[3]; pH 7.4
  NO donor remaining within the CarboSil polymer films: 0.25±0.17%
[4]
  stabilized passive NO release rate of solutions: slightly higher rate of NO release than SNAPicillin solutions

## CC(=O)NC(C(=O)NC(C(=O)NC1C(=O)N2C1SC(C)(C)C2C(=O)O)c1ccccc1)C(C)(C)SN=O (stereo not drawn) [SNAPicillin]
[1]; [7]
  reduction of viable bacteria adhered on the films (biofilm): 99.9±0.18%
[1]; [6]
  reduction in planktonic bacteria in solution: 99.5±0.264%
S. aureus
  ZOI values against S. aureus: 34.0±1.40 mm
[5]
  cumulative leaching from films, ampicillin study: 0.043±0.003 μmol cm^−2
[2]
  cumulative leaching from films, SNAP leaching study: 0.051±0.10 μmol cm-2
[3]
  NO donor remaining within the CarboSil polymer films: 21.9±1.72%
[3]; equimolar blend in CarboSil films, PBS (pH 7.4) with EDTA, 37° C., 7 days
  NO flux from blended films: higher NO fluxes at every time point when compared to SNAP

## [N]=O [NO, nitric oxide]
biofilms
  concentration of NO able to trigger the biofilm dispersal mechanism: 450 pM

## CC1(C)S[C@@H]2[C@H](NC(=O)[C@H](N)c3ccccc3)C(=O)N2[C@H]1C(=O)O [ampicillin]
[1]; [6]
  reduction in planktonic bacteria in solution: 90.0±1.13%
[1]; [7]
  inhibition at 500 µM: 28.9 ± 5.89%
S. aureus
  ZOI values against S. aureus: 34.5±1.50 mm
[5]
  cumulative leaching from films, ampicillin study: 0.087±0.003 μmol cm^−2
